Holding throughout (test): NCI tumour cell line growth inhibition, 48 h
For assay [1], the system named is SK-MEL-2 melanoma.
The subject of assay [2] is U251 CNS.
For assay [3], the system named is T-47D breast.
The subject of assay [4] is SK-MEL-28 melanoma.
Assay [5] has as its system PC-3 prostate.
Assay [6] concerns CAKI-1 renal.
Assay [7] has as its system MDA-MB-231 breast.
The test system of assay [8] is K-562 leukemia.
The subject of assay [9] is SNB-75 CNS.
Assay [10] relates to HS 578T breast.

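Test compounds were applied to cells in 96-well plates for 48 hours at 5 doses. GI50 = concentration required for 50% inhibition of growth. TGI is the concentration that stops growth completely.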

With `CC(C)N1C(NNC(=O)c2cnccn2)=NS(=O)(=O)c2ccccc21`, the GI50 in assay [1] is over 100 µM; in assay [2], over 100 µM; in [3], over 100 µM; in [4], over 100 µM; in assay [5] it was over 100 µM; in assay [6] it was over 100000 nM. The GI50 in assay [7] was over 100 µM; in assay [8], over 100000 nM; in [9] it was 94.5 µM; in assay [10] it was over 100 µM. The TGI in [1], in assay [2], in assay [3], in [4], in assay [5] and in [6] was over 100 µM each time. In addition, the TGI in assay [7], in assay [8], in assay [9] and in assay [10] was over 100 µM in each case.
`COc1ccc(/C=C2\CCC(CN(C)C)C2=O)cc1OC` (stereo not given): the TGI amounted to 26.9 µM in [1]; 30.8 µM in [2]; 44.5 µM in assay [3]; 13.8 µM in assay [4]; 13.9 µM in assay [5]; 10 µM in assay [6]. Further, the TGI in assay [7] was 7.71 µM; in assay [8], 9.12 µM; in assay [9], 30.5 µM; in assay [10], over 100 µM.
For the compound `OCC1OC(n2cnc3c(=S)nc[nH]c32)C(O)C1O` (stereo not given), the GI50 in assay [1] was over 100 µM; in assay [2] it was 58.3 µM; in assay [3], 2.95 µM; in assay [4] it was over 62.5 µM; in assay [5], 6.71 µM; in assay [6], 6940 nM. The GI50 in assay [7] was 14.1 µM; in assay [8] it was 1040 nM; in assay [9] it was 34.1 µM; in assay [10] it was 12.8 µM. For the same compound, the TGI in [1], in assay [2], in assay [3], in [4], in assay [5] and in [6] was over 2500 µM throughout. Also, the TGI in [7], in assay [8], in assay [9] and in assay [10] was over 2500 µM in each case.
For the compound `CCNCCNc1cc(C2CCCCC2)c(C#N)c2nc3ccccc3n12`, the GI50 in [1] was 2.29 µM; in [2], 1.48 µM; in assay [3], 1.58 µM; in assay [4] it was 1.7 µM; in [5], 4.81 µM; in assay [6], 1820 nM. The GI50 in assay [7] is 1.95 µM; in [8] it was 1350 nM; in assay [9] it was 1.52 µM; in assay [10] it was 2.4 µM. Besides, the TGI in assay [1] amounted to 4.71 µM; in [2], 3.42 µM; in [3], 3.42 µM; in assay [4], 3.36 µM; in [5] it was 16 µM; in assay [6], 3.91 µM. For the same compound, the TGI came out at 3.62 µM in [7], 4.39 µM in [8], 3.4 µM in assay [9] and 5.42 µM in [10].
As to `C=C1CCC2C3(C)COC(c4ccccc4Br)OC3CCC2(C)C1C/C=C1/C(=O)OCC1OC(C)=O` (stereo not given), the GI50 is 1.72 µM in assay [1]; 1.22 µM in assay [2]; 1.08 µM in assay [3]; 1.76 µM in assay [4]; 1.63 µM in assay [5]; 2400 nM in assay [6]. For the same compound, the GI50 in [7] was 1.47 µM; in assay [8], 396 nM; in [9], 1.17 µM; in assay [10], 1.89 µM. The TGI was 3.4 µM in assay [1]; 2.46 µM in assay [2]; 2.77 µM in assay [3]; 3.15 µM in assay [4]; 3.76 µM in assay [5]; 6.46 µM in assay [6]. Moreover, the TGI in [7] amounted to 3.16 µM; in assay [8], 4.4 µM; in assay [9], 2.46 µM; in assay [10], 4.65 µM.
On to `Nc1n[nH]c2ccc([C@@H]3Nc4ccc5[nH]ncc5c4[C@H]4C5C=CC(C5)[C@@H]34)cc12` (stereo not given in full), for which the GI50 in [1] is 4.14 µM; in assay [2] it was 0.433 µM; in assay [3] it was 10.9 µM; in assay [4], 1.59 µM; in assay [5], 0.407 µM; in assay [6], 230 nM. The GI50 in [7] is 0.694 µM; in assay [8], 99.2 nM; in [9], 0.176 µM; in [10], 0.27 µM. The TGI came to 28 µM in [1]; 22.2 µM in assay [2]; 77.1 µM in assay [3]; 31.9 µM in [4]; 22.7 µM in assay [5]; 21.6 µM in assay [6]. Moreover, the TGI in assay [7] is 12.4 µM; in assay [8], over 100 µM; in assay [9] it was 24.8 µM; in assay [10], 21.2 µM.
Turning to `O=C(CN1CCN(c2ccccc2)CC1)N1CCN(c2nnc(-c3ccc(Cl)cc3)c(-c3ccc(Cl)cc3)n2)CC1`, the GI50 is 12.4 µM in [1]; 8.16 µM in [2]; 3.51 µM in assay [3]; 56.2 µM in assay [4]; 7.44 µM in [5]; 13500 nM in assay [6]. Also, the GI50 was 21.9 µM in assay [7], 3320 nM in assay [8], 14 µM in assay [9] and 16.5 µM in [10]. Further, the TGI in assay [1] is 42.2 µM; in [2], 31 µM; in assay [3] it was 28.9 µM; in assay [4], over 100 µM; in assay [5], over 100 µM; in assay [6] it was over 100 µM. For the same compound, the TGI is over 100 µM in [7], over 100 µM in assay [8], 71.1 µM in assay [9] and over 100 µM in assay [10].
On to `Nc1ccc(-c2ccc(N)cc2I)c(I)c1`, for which the GI50 in [1] was 15.9 µM; in assay [2], 16.3 µM; in assay [3] it was 18.5 µM; in assay [4] it was 14.1 µM; in [5], 16.3 µM; in assay [6], 14500 nM. The GI50 in assay [7] is 16.6 µM; in assay [8], 5890 nM; in assay [9], 10.8 µM; in assay [10], 17.1 µM. Also, the TGI was determined as 37.4 µM in assay [1]; 35.6 µM in [2]; 59.1 µM in assay [3]; 38.6 µM in assay [4]; 47.6 µM in assay [5]; 42.9 µM in assay [6]. Moreover, the TGI in [7] stood at 46.4 µM; in assay [8], 39.1 µM; in assay [9], 73.8 µM; in assay [10], 88.3 µM.
Turning to `COC(=O)C(F)C(Br)C(=O)OC` (stereo not given), the TGI in [1] was 32.6 µM; in assay [2] it was 9.84 µM; in assay [3], 6.63 µM; in assay [4] it was 34.3 µM; in [5] it was 10.1 µM; in assay [6] it was 5.17 µM. Besides, the TGI in assay [7] was 28.3 µM; in assay [8], 3.72 µM; in assay [9] it was 31 µM; in assay [10], 68.6 µM.
As for `CS(=O)(=O)Nc1ccc(N=Cc2c(O)[nH]c3ccccc23)cc1`, the GI50 in assay [1] was over 25 µM; in [2], over 25 µM; in assay [3], over 25 µM; in [4], over 25 µM; in assay [5] it was over 25 µM; in assay [6] it was over 13900 nM. In addition, the GI50 in [7] is over 25 µM; in [8], over 25000 nM; in assay [9], over 25 µM; in [10] it was over 25 µM. Moreover, the TGI in assay [1], in assay [2], in assay [3], in assay [4], in [5] and in assay [6] was over 25 µM in each case. Further, the TGI in assay [7], in [8], in assay [9] and in assay [10] was over 25 µM each time.
Take `Cc1ccc2c(c1)C(=O)c1c-2n(CCCBr)c(=O)c2cc([N+](=O)[O-])ccc12`: the GI50 is over 100 µM in assay [1]; 24.8 µM in assay [2]; 7.69 µM in assay [3]; over 100 µM in assay [4]; 17.4 µM in [5]; 5280 nM in assay [6]. In addition, the GI50 was 58.8 µM in assay [7], 32100 nM in [8], 48.1 µM in assay [9] and over 100 µM in [10]. For the same compound, the TGI was over 100 µM in [1]; over 100 µM in assay [2]; 60.8 µM in [3]; over 100 µM in [4]; over 100 µM in assay [5]; 32.6 µM in assay [6]. Also, the TGI in assay [7], in assay [8], in [9] and in [10] was over 100 µM throughout.
In the case of `CN(C)CC1CCCCCC(CN(C)C)C1=O` (stereo not given), the GI50 in assay [1] was 3.82 µM; in [2] it was 11.1 µM; in assay [3], 2.12 µM; in assay [4] it was 3.65 µM; in [5] it was 8.71 µM; in assay [6], 1490 nM. Moreover, the GI50 in [7] was 8.68 µM; in assay [8], 1440 nM; in assay [9], 12.2 µM; in [10], 21 µM. Further, the TGI stood at 13.4 µM in assay [1]; 25.6 µM in [2]; 12.5 µM in assay [3]; 10.5 µM in assay [4]; 24.2 µM in [5]; 3.12 µM in assay [6]. The TGI in [7] is 23.8 µM; in [8] it was 7.07 µM; in [9], 27.5 µM; in assay [10], over 64.3 µM.
On to `CN(C(=O)c1ccncc1)c1ccccc1`, for which the TGI in assay [1], in assay [2], in assay [3], in assay [4], in assay [5] and in assay [6] was over 100 µM throughout. Besides, the TGI in [7], in assay [8], in assay [9] and in assay [10] was over 100 µM each time.
Regarding `CC(C)c1ccc(Nc2nccc(-c3cnn4ncccc34)n2)cc1`, the GI50 in assay [1] was 0.411 µM; in [2] it was 0.559 µM; in [3] it was 0.469 µM; in assay [4] it was 0.422 µM; in [5] it was 0.615 µM; in assay [6], 800 nM. Also, the GI50 is 0.726 µM in assay [7], 1190 nM in [8], 0.484 µM in assay [9] and 0.623 µM in [10]. The TGI in assay [1] is 1.13 µM; in assay [2], over 9.71 µM; in assay [3] it was over 6.22 µM; in assay [4], 1.6 µM; in assay [5], over 12.3 µM; in [6], over 15.4 µM. In addition, the TGI was over 17.9 µM in assay [7], over 25 µM in [8], 1.17 µM in [9] and 5.16 µM in [10].
Take `COc1cc(C2C3=C(COC3=O)Nc3cc4c(cc32)CCC4)cc2c1OCO2` (stereo not given): the GI50 is 0.0989 µM in assay [1]; 0.0452 µM in [2]; 12 µM in assay [3]; 0.0691 µM in [4]; 0.049 µM in [5]; 157 nM in assay [6]. Besides, the GI50 in [7] was 0.0577 µM; in assay [8], 37.5 nM; in assay [9], 0.0259 µM; in [10], 0.0425 µM. Moreover, the TGI in [1] worked out at 3.47 µM; in [2], 4.61 µM; in assay [3], 59.8 µM; in assay [4], 24.4 µM; in [5], 18.2 µM; in [6], 38.7 µM. Moreover, the TGI was found to be 5.11 µM in assay [7], 12.3 µM in [8], 18.8 µM in assay [9] and 21.3 µM in assay [10].
Take `O=C(N/N=C/c1cc([N+](=O)[O-])ccc1O)c1cccc2ccccc12`: the GI50 in assay [1] was 6.69 µM; in [2], 2.46 µM; in [3] it was 3.28 µM; in assay [4], 3.11 µM; in assay [5], 6.85 µM; in [6], 1310 nM. Further, the GI50 in assay [7] was 7.6 µM; in [8] it was 3260 nM; in assay [9] it was 6.2 µM; in assay [10] it was 12.8 µM. Besides, the TGI in assay [1] is over 100 µM; in assay [2], 64.1 µM; in assay [3], 23.3 µM; in [4], 80.8 µM; in [5] it was 64.9 µM; in assay [6], 4.67 µM. For the same compound, the TGI was over 100 µM in [7], over 100 µM in assay [8], 44.7 µM in assay [9] and over 100 µM in assay [10].

The values above are taken from PubChem BioAssay (NCI).
